Experimental data from US20230340012A1, “NATURAL AND SYNTHETIC COMPOUNDS FOR TREATING CANCER AND OTHER DISEASES” (PACIFIC ARROW LIMITED, priority 2009, published 2023).

What was measured:
[1] = system: cancer cells; assay: Inhibition of cancer growth, cancer invasion, cell invasion or cancer cell invasion; type: cell-based
From the text: The program is based on our purification methods and biological assays including the MTT assay. See International Application No. PCT/US05/31900, filed Sep. 7, 2005, U.S. Serial No. 11/289,142, filed Nov. 28, 2005, and U.S. Serial No. 11/131551, filed May 17, 2005, and PCT/US2008/002086, 1188-ALA-PCT, filed Feb. 15, 2008, 12/344,682, 1020-B1-US, filed Dec. 29, 2008. The details of Analysis of gene expression of ES2 cells after Y-treatment by Microarray, Data Analysis Methods and Western blot in PCT/US2008/002086, 1188-ALA-PCT, filed Feb. 15, 2008, and the cell invasion experiments methods in International Application PCT/US2010/0042240, filed Jul. 16, 2010.

[2] = system: ANGPT2, DDIT3, LIF and NFKB1Z; details: Real-time PCR; results in Table 19-21 of PCT/US09/34115; cited from earlier work
[3] = system: Erythrocytes (RBC); assay: The haemolytic assay; details: in words, no concentration given

Row | Compound | inhibiting cancer growth, cancer invasion, cell invasion or cancer cell invasion [1] | expression of the genes ANGPT2, DDIT3, LIF and NFKB1Z [2] | hemolytic activity [3]
1 | C/C=C(/C)C(=O)O[C@H]1[C@H](OC(=O)/C(C)=C\C)[C@@]2(CO)C(CC1(C)C)C1=CCC3[C@@]4(C)CC[C@H](O)C(C)(C)C4CC[C@@]3(C)[C@]1(C)[C@@H](O)[C@H]2O (stereo partly shown) [ACH-Y3] | has the ability to inhibit | increase | less potent
2 | C/C=C(/C)C(=O)O[C@H]1[C@H](OC(=O)/C(C)=C\C)[C@@]2(CO)C(CC1(C)C)C1=CCC3[C@@]4(C)CC[C@H](O[C@@H]5OC(C(=O)O)[C@@H](O)[C@@H](O[C@@H]6O[C@@H](CO)[C@@H](O)C6O)C5O[C@@H]5OC(CO)[C@H](O)[C@@H](O)C5O)C(C)(C)C4CC[C@@]3(C)[C@]1(C)[C@@H](O)[C@H]2O (stereo partly drawn) [Compound Y, 3-O-[β-D-galactopyranosyl (1→2)]-α-L-arabinofuranosy (1→3)-β-D-glucuronopyranosyl-21,22-O-diangeloyl-3β, 15α, 16α, 21β, 22α, 28-hexahydroxyolean-12-ene] | – | increase | –
